Biological target: T1, Dimer of Gag-Pol polyprotein [491-589,Q496K] (Human immunodeficiency virus 1, UniProt P03369, Q496K)
T1 construct: 491-589
Experiment: Enzyme Inhibition Assay
Description: HIV-1 protease inhibitor activities were determined by the fluorescence resonance energy transfer (FRET) method. The energy transfer donor (EDANS) and acceptor (DABCYL) were labeled at two ends of peptide substrate to perform FRET. Fluorescence measurements were carried out on a fluorescence spectrophotometer. Excitation and emission wavelengths were set at 340 and 490 nm. Inhibitor binding dissociation constant Ki was obtained by nonlinear regression fitting to the plot of initial velocity as a function of inhibitor concentrations based on Morrison equation. The initial velocities were derived from the linear range of reaction curves.

Row | SMILES | Ki [nM]
1 | COc1cccc(S(=O)(=O)N(C[C@H]2CCCO2)C[C@@H](O)[C@H](Cc2ccccc2)NC(=O)[C@@H]2CN(c3ccccc3)C(=O)O2)c1 [(5S)-N-[(1S,2R)-1-Benzyl-2-hydroxy-3-[[(3-methoxyphenyl)-sulfonyl][(R)-(tetrahydro-2-furanyl)methyl]amino]propyl]-2-oxo-3-phenyloxazolidine-5-carboxamide] | 42
2 | COc1cccc(S(=O)(=O)N(C[C@H]2CCCO2)C[C@@H](O)[C@H](Cc2ccccc2)NC(=O)[C@@H]2CN(c3cccc(F)c3)C(=O)O2)c1 [(5S)-N-[(1S,2R)-1-Benzyl-2-hydroxy-3-[[(3-methoxyphenyl)-sulfonyl][(R)-(tetrahydro-2-furanyl)methyl]amino]propyl]-3-(3-fluorophenyl)-2-oxooxazolidine-5-carboxamide] | 150
